Results on seven compounds are retold here after ChEMBL document CHEMBL5465560, “Selectivity Literature for EUbOPEN Chemogenomic Library” (2024).

SMILES strings stand for the structures.

Assay [1] deals with T1, Serine/threonine-protein kinase DCLK3 (Homo sapiens) (UniProt Q9C098).
T1 sequence (whole entry): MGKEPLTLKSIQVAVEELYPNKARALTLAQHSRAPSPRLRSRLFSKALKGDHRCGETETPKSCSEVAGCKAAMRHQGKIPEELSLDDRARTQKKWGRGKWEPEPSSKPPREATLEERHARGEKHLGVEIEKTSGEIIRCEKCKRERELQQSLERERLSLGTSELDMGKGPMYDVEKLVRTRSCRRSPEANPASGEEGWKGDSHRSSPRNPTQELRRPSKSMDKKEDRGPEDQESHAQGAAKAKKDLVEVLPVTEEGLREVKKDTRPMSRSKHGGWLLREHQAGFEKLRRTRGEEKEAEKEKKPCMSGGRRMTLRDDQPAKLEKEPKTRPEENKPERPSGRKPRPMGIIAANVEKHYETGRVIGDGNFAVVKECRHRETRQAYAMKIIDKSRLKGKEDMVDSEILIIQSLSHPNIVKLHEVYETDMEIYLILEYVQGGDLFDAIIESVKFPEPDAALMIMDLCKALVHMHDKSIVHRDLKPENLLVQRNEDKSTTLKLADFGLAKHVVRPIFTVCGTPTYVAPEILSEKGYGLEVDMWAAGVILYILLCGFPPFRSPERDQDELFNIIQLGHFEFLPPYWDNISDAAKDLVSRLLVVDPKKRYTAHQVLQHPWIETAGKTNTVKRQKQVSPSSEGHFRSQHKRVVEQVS
The note with it: at 10 µM.

Assay [2] concerns the target Serine/threonine-protein kinase 10 (Homo sapiens) (UniProt O94804). The experiment in a line: Selectivity interaction (KinomeScan (DiscoverX)) EUB0001079a STK10. As to conditions: at 1 µM.
Assay [3] has as its target T2, Serine/threonine-protein kinase BRSK2 (Homo sapiens) (UniProt Q8IWQ3).
T2 sequence (whole entry): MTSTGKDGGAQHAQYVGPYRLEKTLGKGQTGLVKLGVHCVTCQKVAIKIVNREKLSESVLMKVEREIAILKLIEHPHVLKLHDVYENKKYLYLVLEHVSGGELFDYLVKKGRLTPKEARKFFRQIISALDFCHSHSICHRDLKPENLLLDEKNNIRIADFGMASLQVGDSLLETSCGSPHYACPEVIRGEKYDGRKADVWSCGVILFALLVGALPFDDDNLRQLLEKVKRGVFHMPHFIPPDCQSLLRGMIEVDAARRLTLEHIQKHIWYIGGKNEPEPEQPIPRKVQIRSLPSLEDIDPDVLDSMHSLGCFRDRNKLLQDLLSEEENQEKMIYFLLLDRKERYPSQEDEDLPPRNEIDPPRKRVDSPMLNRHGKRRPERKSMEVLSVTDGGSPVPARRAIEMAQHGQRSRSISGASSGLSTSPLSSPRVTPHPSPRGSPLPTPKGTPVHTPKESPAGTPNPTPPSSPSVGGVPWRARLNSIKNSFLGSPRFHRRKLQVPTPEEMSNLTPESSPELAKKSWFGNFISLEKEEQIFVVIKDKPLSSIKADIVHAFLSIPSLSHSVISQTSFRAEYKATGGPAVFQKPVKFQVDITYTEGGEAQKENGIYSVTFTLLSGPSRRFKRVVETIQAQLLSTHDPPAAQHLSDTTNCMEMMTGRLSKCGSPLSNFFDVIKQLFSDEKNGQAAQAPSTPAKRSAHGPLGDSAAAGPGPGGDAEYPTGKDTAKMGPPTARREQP
Kind of assay: Selectivity interaction (KinomeScan (DiscoverX)) EUB0000045b BRSK2.

For assay [4], the target named is Dual specificity tyrosine-phosphorylation-regulated kinase 1A (Homo sapiens, UniProt Q13627). Kind of assay: Selectivity interaction (KinomeScan (DiscoverX)) EUB0000666a DYRK1A. The note with it: at 10 µM.
Assay [5] has as its target Serine/threonine-protein kinase PRP4 homolog (Homo sapiens) (UniProt Q13523). Kind of assay: Selectivity interaction (ActivX KiNativ screen (kinase selectivity in THP-1 cell lysates)) EUB0000639a PRPF4. The format is subcellular. The note with it: lysate, at 0.01 µM.
Assay [6] deals with T3, Mitogen-activated protein kinase kinase kinase 6 (Homo sapiens) (UniProt O95382).
T3 sequence (whole entry): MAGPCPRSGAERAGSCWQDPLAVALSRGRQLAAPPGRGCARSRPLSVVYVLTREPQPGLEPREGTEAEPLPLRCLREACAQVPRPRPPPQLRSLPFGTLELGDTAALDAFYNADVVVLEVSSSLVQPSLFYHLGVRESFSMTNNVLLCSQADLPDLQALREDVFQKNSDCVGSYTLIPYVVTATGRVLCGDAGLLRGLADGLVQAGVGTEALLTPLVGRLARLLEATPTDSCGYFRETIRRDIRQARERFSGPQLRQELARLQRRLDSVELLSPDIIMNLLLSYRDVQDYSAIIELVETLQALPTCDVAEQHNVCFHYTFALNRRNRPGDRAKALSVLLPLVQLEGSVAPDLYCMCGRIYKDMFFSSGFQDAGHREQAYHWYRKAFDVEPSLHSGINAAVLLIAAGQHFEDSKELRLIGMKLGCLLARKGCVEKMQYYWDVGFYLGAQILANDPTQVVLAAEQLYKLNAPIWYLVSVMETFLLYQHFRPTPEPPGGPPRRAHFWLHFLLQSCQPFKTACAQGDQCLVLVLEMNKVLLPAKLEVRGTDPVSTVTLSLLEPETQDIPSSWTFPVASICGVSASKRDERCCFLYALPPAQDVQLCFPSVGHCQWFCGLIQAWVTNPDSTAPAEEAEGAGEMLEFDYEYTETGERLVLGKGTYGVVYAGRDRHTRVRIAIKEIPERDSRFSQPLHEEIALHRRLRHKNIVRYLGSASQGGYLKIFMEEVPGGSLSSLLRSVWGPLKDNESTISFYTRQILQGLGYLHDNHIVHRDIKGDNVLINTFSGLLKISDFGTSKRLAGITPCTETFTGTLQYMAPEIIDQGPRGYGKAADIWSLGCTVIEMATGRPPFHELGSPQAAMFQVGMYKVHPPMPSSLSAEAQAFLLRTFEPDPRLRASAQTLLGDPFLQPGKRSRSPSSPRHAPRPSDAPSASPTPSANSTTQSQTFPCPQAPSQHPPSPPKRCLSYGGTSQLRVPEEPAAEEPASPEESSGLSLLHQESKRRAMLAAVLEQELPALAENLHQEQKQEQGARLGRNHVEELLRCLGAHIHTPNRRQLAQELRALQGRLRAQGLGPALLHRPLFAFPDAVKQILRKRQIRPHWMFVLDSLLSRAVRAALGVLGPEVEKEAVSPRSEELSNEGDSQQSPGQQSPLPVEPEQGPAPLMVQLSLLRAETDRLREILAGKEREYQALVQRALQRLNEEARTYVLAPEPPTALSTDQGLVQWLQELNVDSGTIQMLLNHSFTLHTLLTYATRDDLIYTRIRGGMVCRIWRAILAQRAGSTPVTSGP
The experiment in a line: Selectivity interaction (KinomeScan (DiscoverX)) EUB0000595a MAP3K6. As to conditions: at 10 µM.

The target of assay [7] is Tyrosine-protein kinase BTK (Homo sapiens, UniProt Q06187). Kind of assay: Selectivity interaction (KinomeScan (DiscoverX)) EUB0000618a BTK. As to conditions: at 10 µM.
Sequence of Tyrosine-protein kinase BTK (Q06187 whole entry): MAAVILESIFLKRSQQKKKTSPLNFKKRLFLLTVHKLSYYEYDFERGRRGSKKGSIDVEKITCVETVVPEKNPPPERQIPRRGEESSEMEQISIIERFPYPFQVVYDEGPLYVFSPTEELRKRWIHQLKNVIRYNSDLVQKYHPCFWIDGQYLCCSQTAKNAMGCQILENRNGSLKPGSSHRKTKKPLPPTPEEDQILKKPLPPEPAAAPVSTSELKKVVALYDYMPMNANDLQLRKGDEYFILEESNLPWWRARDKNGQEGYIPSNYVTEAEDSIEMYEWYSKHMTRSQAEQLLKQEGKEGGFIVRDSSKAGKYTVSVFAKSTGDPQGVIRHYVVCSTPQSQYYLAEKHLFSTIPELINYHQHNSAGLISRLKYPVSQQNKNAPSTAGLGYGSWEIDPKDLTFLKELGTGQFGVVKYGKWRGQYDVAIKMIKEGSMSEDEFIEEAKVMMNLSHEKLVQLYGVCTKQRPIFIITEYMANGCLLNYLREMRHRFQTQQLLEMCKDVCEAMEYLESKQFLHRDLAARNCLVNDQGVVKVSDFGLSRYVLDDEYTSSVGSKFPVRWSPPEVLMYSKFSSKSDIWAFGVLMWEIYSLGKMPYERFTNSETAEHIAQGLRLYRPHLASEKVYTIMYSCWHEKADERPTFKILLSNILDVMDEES

Sequence of Serine/threonine-protein kinase 10 (Homo sapiens) (O94804 whole entry, looked up): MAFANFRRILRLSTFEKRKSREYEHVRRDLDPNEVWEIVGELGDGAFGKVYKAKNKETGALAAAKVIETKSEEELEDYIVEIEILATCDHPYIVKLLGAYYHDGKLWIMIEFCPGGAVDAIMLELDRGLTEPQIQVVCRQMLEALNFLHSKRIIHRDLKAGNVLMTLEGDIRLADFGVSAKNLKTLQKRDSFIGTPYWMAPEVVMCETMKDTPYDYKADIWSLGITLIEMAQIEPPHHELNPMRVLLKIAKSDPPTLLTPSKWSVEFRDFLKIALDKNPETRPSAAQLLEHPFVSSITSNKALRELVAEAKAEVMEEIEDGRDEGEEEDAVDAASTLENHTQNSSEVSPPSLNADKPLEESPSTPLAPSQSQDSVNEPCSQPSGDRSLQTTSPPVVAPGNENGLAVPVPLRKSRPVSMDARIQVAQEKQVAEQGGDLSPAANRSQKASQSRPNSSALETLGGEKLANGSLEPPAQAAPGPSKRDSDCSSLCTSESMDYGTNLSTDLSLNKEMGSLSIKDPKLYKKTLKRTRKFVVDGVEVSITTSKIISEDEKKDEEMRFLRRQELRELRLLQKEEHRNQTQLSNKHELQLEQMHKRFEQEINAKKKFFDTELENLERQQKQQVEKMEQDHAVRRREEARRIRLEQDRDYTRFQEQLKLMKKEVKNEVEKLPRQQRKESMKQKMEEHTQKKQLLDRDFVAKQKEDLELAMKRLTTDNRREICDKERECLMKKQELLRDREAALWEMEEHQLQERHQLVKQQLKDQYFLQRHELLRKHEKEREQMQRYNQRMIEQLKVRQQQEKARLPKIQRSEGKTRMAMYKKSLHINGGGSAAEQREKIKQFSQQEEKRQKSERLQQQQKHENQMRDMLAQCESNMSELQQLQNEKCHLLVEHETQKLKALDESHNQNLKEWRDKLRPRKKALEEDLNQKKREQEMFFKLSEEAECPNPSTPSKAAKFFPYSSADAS
Sequence of Serine/threonine-protein kinase PRP4 homolog (Homo sapiens) (Q13523 whole entry): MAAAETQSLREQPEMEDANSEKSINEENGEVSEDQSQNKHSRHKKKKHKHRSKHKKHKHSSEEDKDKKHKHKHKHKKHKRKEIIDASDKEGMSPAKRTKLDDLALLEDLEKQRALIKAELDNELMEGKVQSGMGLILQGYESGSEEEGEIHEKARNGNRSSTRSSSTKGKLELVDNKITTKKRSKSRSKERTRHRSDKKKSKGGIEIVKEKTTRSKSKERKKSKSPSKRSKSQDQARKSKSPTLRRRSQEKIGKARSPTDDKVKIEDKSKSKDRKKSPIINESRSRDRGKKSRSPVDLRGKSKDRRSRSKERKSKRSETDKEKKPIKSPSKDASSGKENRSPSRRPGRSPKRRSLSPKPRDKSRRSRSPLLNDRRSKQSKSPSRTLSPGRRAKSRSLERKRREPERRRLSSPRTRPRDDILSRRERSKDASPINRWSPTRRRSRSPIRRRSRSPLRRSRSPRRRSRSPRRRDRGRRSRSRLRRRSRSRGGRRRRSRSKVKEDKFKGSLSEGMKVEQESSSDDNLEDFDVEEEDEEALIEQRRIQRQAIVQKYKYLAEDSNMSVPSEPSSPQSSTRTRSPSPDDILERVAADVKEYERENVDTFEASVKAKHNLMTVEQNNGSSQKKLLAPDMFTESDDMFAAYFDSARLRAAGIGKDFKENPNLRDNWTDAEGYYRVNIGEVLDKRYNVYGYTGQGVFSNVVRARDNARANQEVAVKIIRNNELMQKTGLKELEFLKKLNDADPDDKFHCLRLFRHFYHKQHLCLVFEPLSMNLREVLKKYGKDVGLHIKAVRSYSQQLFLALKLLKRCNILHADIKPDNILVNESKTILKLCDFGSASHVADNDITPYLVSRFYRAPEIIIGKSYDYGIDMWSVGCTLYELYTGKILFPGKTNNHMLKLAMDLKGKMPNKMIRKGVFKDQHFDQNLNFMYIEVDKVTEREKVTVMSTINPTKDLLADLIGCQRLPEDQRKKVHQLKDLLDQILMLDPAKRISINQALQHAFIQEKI

In assay [1], `CCN(CC)CCCCNc1ncc2cc(-c3cc(OC)cc(OC)c3)c(NC(=O)NC(C)(C)C)nc2n1` registered a % of control of 100%.
`Nc1cnc(N2CCc3cc(S(=O)(=O)Nc4c(F)cc(Cl)cc4F)cc(N4CCCC4=O)c32)nc1` [TP-020n] yielded a % of control in assay [2] of 100%.
Take `C=CC(=O)Nc1cc(-n2c(=O)ccc3cnc4ccc(-c5ccc(NS(C)(=O)=O)cc5)cc4c32)ccc1C`: the % of control is 84% in assay [3] (at 1 µM) and 100% in assay [3] (at 10 µM).
Regarding `O=C(NOC[C@H](O)CO)c1ccc(F)c(F)c1Nc1ccc(I)cc1F`, the % of control in assay [4] is 100%.
As for `CC[C@@H]1[C@H](F)C(=O)N[C@@H]1COc1nccc2cc(C(N)=O)c(OC)cc12` [ZIMLOVISERTIB], the % of inhibition in assay [5] is 11%.
Turning to `COCC(=O)NC/C=C/c1ccc2ncnc(Nc3ccc(Oc4ccc(C)nc4)c(C)c3)c2c1` [CP-724714], in assay [6], the % of control stood at 100%.
Consider `O[C@H]1CC[C@H](Nc2ncc3nc(Nc4c(F)cc(F)cc4F)n([C@H]4CCOC4)c3n2)CC1`, for which the % of control in assay [7] worked out at 100%.
